In paper PMC5423501 (The Oncologist, 2017):
Entries after “also recorded” stand apart in the source; their conditions may differ. Like-named read-outs stand apart in the source and are kept apart here.

What was measured:
[1] = Steady-state plasma pharmacokinetics, cycle 1 day 8; type: in vivo, human
[2] = test system: bFGF; test: Serum factors, V-Plex assay, baseline vs end of cycle 1; type: in vivo, human; conditions: baseline to end of cycle 1; p = .018
[3] = test system: patients with Kaposi sarcoma; conditions: in vivo
[4] = test system: IL‐12p40; test: Serum factors, V-Plex assay, baseline vs end of cycle 1; type: in vivo, human; conditions: baseline to end of cycle 1; p = .002
[5] = test system: patients with HIV and HCC; conditions: 27 patients with HIV and HCC, 400 mg sorafenib twice daily, retrospective; cited from earlier work
[6] = test system: Kaposi sarcoma; test: KS response assessment; type: in vivo, human
[7] = test system: patients with HCC; conditions: phase III trial in HCC; cited from earlier work
[8] = test system: patients with HIV and cancer; conditions: cited from earlier work

CNC(=O)c1cc(Oc2ccc(NC(=O)Nc3ccc(Cl)c(C(F)(F)F)c3)cc2)cc[n+]1[O-] [Sorafenib N-Oxide, Sorafenib N‐oxide]
decrease of AUCTAU of sorafenib-N-oxide in patients receiving ritonavir ([1]; trend, p = .08): 3.8 fold

CNC(=O)c1cc(Oc2ccc(NC(=O)Nc3ccc(Cl)c(C(F)(F)F)c3)cc2)ccn1 [Sorafenib]
change in serum bFGF [2]: potential trend towards decreased bFGF
patients with grade 3 toxicities that did not meet DLT criteria [3]: five
CMAX and AUC0-12h of sorafenib compared with literature ([1]; 200 mg dose at steady state): within reported ranges
effect of ritonavir on steady-state AUCTAU (exposure) of sorafenib ([1]; cohort on ritonavir vs not on ritonavir): not significantly affected by ritonavir; also recorded: only modestly affected
change in serum IL-12p40 [4]: statistically significant decrease
diarrhea, grade 3–4 AE [5]: 15%
hypertension, grade 3–4 AE [5]: 11%
palmar-plantar erythrodysesthesia syndrome, grade 3–4 AE [5]: 15%
ORR in patients evaluable for response ([6]; 2/7, 95% CI 4%–71%): 29%
ORR in all patients ([6]; 2/10, 95% CI 3%–56%): 20%
Median duration of SD ([6]; range 1–5, 21-day cycles): 4 cycles
diarrhea, grade 3–4 AE [7]: 8%
hypertension, grade 3–4 AE [7]: 2%
palmar-plantar erythrodysesthesia syndrome, grade 3–4 AE [7]: 8%

CCN(CC)CCNC(=O)c1c(C)[nH]c(/C=C2\C(=O)Nc3ccc(F)cc32)c1C [sunitinib]
tolerability ([8]; HIV patients not taking ritonavir): tolerated standard dosing
tolerability ([8]; patients receiving ritonavir): higher toxicities at lower doses
effect of ritonavir on sunitinib and active metabolite ([8]; patients with HIV and cancer): decreases in the sunitinib active metabolite but not the parent drug
